Where a name gives a salt, the structure may show the parent alone.
System: normal human plasma
Test: Anticoagulant activity, partial thromboplastin time (APTT) assay
Type: biochemical
Conditions: for Anticoagulation Activity (APTT) Relative to Heparin: ratio >1 indicates weaker activity relative to heparin on a μg/mL comparison
Protocol: A BBL Fibrometer automatic precesion coagulation timer utilizing a 0.3 mL probe was employed. An Ellagic acid activated partial thromboplastin was used for these experiments. This reagent was added to human citrated plasma equilibrated at 37° C. in a plastic well in the clot timer. Calcium at 37° C. was added, the clot timer was started and the time for fibrin clot formation (in seconds) was recorded. […] Clotting tests at all concentrations were run in triplicate. Analysis of variance for a randomized block design was used to determine the significance of differences observed in the clotting times.

| SMILES | Anticoagulation Activity (APTT) Relative to Heparin | Anticoagulation Activity (APTT), result in words (at 50 μg/mL) |
| --- | --- | --- |
| O=C(Nc1cc(CO[C@@H]2O[C@H](COS(=O)(=O)O)[C@@H](O[C@@H]3O[C@H](COS(=O)(=O)O)[C@@H](OS(=O)(=O)O)[C@H](OS(=O)(=O)O)[C@H]3OS(=O)(=O)O)[C@H](OS(=O)(=O)O)[C@H]2OS(=O)(=O)O)cc(CO[C@@H]2O[C@H](COS(=O)(=O)O)[C@@H](O[C@@H]3O[C@H](COS(=O)(=O)O)[C@@H](OS(=O)(=O)O)[C@H](OS(=O)(=O)O)[C@H]3OS(=O)(=O)O)[C@H](OS(=O)(=O)O)[C@H]2OS(=O)(=O)O)c1)c1ccc(-c2ccc(C(=O)Nc3cc(CO[C@@H]4O[C@H](COS(=O)(=O)O)[C@@H](O[C@@H]5O[C@H](COS(=O)(=O)O)[C@@H](OS(=O)(=O)O)[C@H](OS(=O)(=O)O)[C@H]5OS(=O)(=O)O)[C@H](OS(=O)(=O)O)[C@H]4OS(=O)(=O)O)cc(CO[C@@H]4O[C@H](COS(=O)(=O)O)[C@@H](O[C@@H]5O[C@H](COS(=O)(=O)O)[C@@H](OS(=O)(=O)O)[C@H](OS(=O)(=O)O)[C@H]5OS(=O)(=O)O)[C@H](OS(=O)(=O)O)[C@H]4OS(=O)(=O)O)c3)cc2)cc1 [EXAMPLE 15, Biphenyl-4,4'-dicarboxylic Acid Bis{[3,5-bis(hepta-O-sulfato-β-D-cellobiosyloxymethyl)phenyl]amide}Octacosasodium Salt] | 2.0-2.3 |  |
| O=C(Nc1cc(CO[C@@H]2O[C@H](COS(=O)(=O)O)[C@@H](OS(=O)(=O)O)[C@H](OS(=O)(=O)O)[C@H]2OS(=O)(=O)O)cc(CO[C@@H]2O[C@H](COS(=O)(=O)O)[C@@H](OS(=O)(=O)O)[C@H](OS(=O)(=O)O)[C@H]2OS(=O)(=O)O)c1)c1ccc(-c2ccc(C(=O)Nc3cc(CO[C@@H]4O[C@H](COS(=O)(=O)O)[C@@H](OS(=O)(=O)O)[C@H](OS(=O)(=O)O)[C@H]4OS(=O)(=O)O)cc(CO[C@@H]4O[C@H](COS(=O)(=O)O)[C@@H](OS(=O)(=O)O)[C@H](OS(=O)(=O)O)[C@H]4OS(=O)(=O)O)c3)cc2)cc1 [EXAMPLE 17, Biphenyl-4,4'-dicarboxylic Acid Bis{[3,5-bis(tetra-O-sulfato-β-D-glucosyloxymethyl)phenyl]amide}Hexadecasodium Salt] |  | insignificant activity |
| O=C(CCC(=O)Nc1cc(CO[C@@H]2O[C@H](COS(=O)(=O)O)[C@@H](O[C@@H]3O[C@H](COS(=O)(=O)O)[C@@H](OS(=O)(=O)O)[C@H](OS(=O)(=O)O)[C@H]3OS(=O)(=O)O)[C@H](OS(=O)(=O)O)[C@H]2OS(=O)(=O)O)cc(CO[C@@H]2O[C@H](COS(=O)(=O)O)[C@@H](O[C@@H]3O[C@H](COS(=O)(=O)O)[C@@H](OS(=O)(=O)O)[C@H](OS(=O)(=O)O)[C@H]3OS(=O)(=O)O)[C@H](OS(=O)(=O)O)[C@H]2OS(=O)(=O)O)c1)Nc1cc(CO[C@@H]2O[C@H](COS(=O)(=O)O)[C@@H](O[C@@H]3O[C@H](COS(=O)(=O)O)[C@@H](OS(=O)(=O)O)[C@H](OS(=O)(=O)O)[C@H]3OS(=O)(=O)O)[C@H](OS(=O)(=O)O)[C@H]2OS(=O)(=O)O)cc(CO[C@@H]2O[C@H](COS(=O)(=O)O)[C@@H](O[C@@H]3O[C@H](COS(=O)(=O)O)[C@@H](OS(=O)(=O)O)[C@H](OS(=O)(=O)O)[C@H]3OS(=O)(=O)O)[C@H](OS(=O)(=O)O)[C@H]2OS(=O)(=O)O)c1 [EXAMPLE 22, N,N'-Bis[3,5-bis(hepta-O-sulfato-β-D-cellobiosyloxymethyl)phenyl]succinamide Octacosasodium Salt] | 2.0 |  |
